# Measurements reported in patent publication US8901164B2, “Amphipathic and other double-sided alpha-helix mimetics based on a 1,2-diphenylacetylene scaffold” (University of Maryland, Baltimore, priority 2013, dated 2014).
# Target: Mcl-1-Bak-BH3 complex (Homo sapiens, UniProt Q07820)
# Assay: Antagonism of the Mcl-1-Bak-BH3 complex (preliminary studies)
# Format: binding
# Conditions: read-out: IC50 for antagonizing the Mcl-1-Bak-BH3 complex
# Mcl-1-Bak-BH3 complex, sequence (Q07820 172-327 limits assumed, one chain of several): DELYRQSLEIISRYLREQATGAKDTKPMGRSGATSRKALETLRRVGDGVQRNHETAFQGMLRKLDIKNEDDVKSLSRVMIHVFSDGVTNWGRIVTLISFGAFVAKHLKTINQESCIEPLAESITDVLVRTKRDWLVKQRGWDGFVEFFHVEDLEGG
structure (smiles),measurement,value
"CC(C)COc1ccc(C(=O)NCCN)c(C#Cc2cc(OCc3ccccc3)ccc2NC(=O)C(=O)O)c1OCC(C)C [Compound 14, 2-((2-((6-((2-Aminoethyl)carbamoyl)-2,3-diisobutoxyphenyl)ethynyl)-4-(benzyloxy)phenyl)amino)-2-oxoacetic acid]",IC50,3.24 ± 0.48 µM
